Values belong to the compound of their own block, whether it stands above or below them.
How the values were obtained:
P-glycoprotein = P-glycoprotein expression level by western blotting after drug addition; type: cell-based, human
Description: In […] HCT-15 cells (obtained from Developmental Therapeutics Program, National Cancer Institute, National Institutes of Health, Bethesda, Md., USA) and […] SW620 cells (obtained from Developmental Therapeutics Program, National Cancer Institute, National Institutes of Health, Bethesda, Md., USA), which expressed P-glycoprotein at a high level, screening of drugs that reduced the expression level of P-glycoprotein was performed by western blotting. […]
Inhibitory effects of MEK inhibitor U0126 on the expression level of P-glycoprotein in HCT-15 and SW620 cells prepared by the same procedure as described in PREPARATION EXAMPLE 1 in which endogenous P-glycoprotein was expressed and in the MCF-7/MDR and MDA-MB-231/MDR cells in which exogenous P-glycoprotein was expressed were monitored with passage of time in a manner similar to EXAMPLE 1. […]
Using MEK inhibitor PD098059 (purchased from Cell Signaling Technology; see English, J. et al. (1999) Exp. Cell Res. 253, 255), which has an action mechanism different from U0126, inhibitory effects of MEK inhibitor PD098059 on the expression level of P-glycoprotein in the HCT-15 and SW620 cells in which endogenous P-glycoprotein was expressed and in the MCF-7/MDR and MDA-MB-231/MDR cells in which exogenous P-glycoprotein was expressed were monitored with passage of time in a manner similar to EXAMPLE 1. […]

MDR1 mRNA = details: U0126 10 μM
BCRP = details: U0126 10 μM; human colon cancer (HT-29, KM12), non-small-cell lung cancer (NCI-H460, A549) and ovarian cancer (OVACAR-5) cells; in 12 hours later (FIG. 5)
SW620-14 cells = experiment: cell growth inhibition test, SW620-14; type: cell-based; details: Homo sapiens, 120 h, read-out: IC50 concentration (50% growth inhibitory concentration), 5 days
MCF-7/MDR cells = experiment: cell growth inhibition test, MCF-7/MDR; type: cell-based; details: Homo sapiens, MCF7, 120 h, read-out: IC50 concentration (50% growth inhibitory concentration), 5 days
MDA-MB-231/MDR cells = experiment: cell growth inhibition test, MDA-MB-231/MDR; type: cell-based; details: Homo sapiens, 120 h, read-out: IC50 concentration (50% growth inhibitory concentration), 5 days
HCT-15 cells = experiment: cell growth inhibition test, HCT-15; type: cell-based; details: Homo sapiens, 120 h, read-out: IC50 concentration (50% growth inhibitory concentration), 5 days

Compound: N#CC(=C(N)Sc1ccccc1N)C(C#N)=C(N)Sc1ccccc1N [U0126, 1,4-diamino-2,3-dicyano-1,4-bis[2-aminophenylthio]butadiene]
- expression level of P-glycoprotein (P-glycoprotein; U0126 10 μM, MCF-7/MDR and MDA-MB-231/MDR cells (exogenous P-glycoprotein), in 8 to 12 hours (FIG. 2)): ≤ 10 % of control
- expression level of MDR1 mRNA (MDR1 mRNA): Any change was not observed
- expression level of BCRP (BCRP): reduced

Compound: O=c1cc(N2CCOCC2)oc2c(-c3ccccc3)cccc12 [LY294002, 2-(4-morpholinyl)-8-phenyl-1(4H)-benzopyran-4-one]
- P-glycoprotein expression level (P-glycoprotein; HCT-15 cells and SW620 cells, endogenous P-glycoprotein, western blotting (FIG. 1)): not down-regulated

- IC50 (SW620-14 cells): 5 nM
- IC50 (MCF-7/MDR cells): 4 nM
- IC50 (MDA-MB-231/MDR cells): 800 nM
- IC50 (HCT-15 cells): 100 nM
Compound: CC(=O)O[C@H]1C(=O)[C@@]2(C)[C@H]([C@H](OC(=O)c3ccccc3)[C@]3(O)C[C@H](OC(=O)[C@H](O)[C@@H](NC(=O)c4ccccc4)c4ccccc4)C(C)=C1C3(C)C)[C@]1(OC(C)=O)CO[C@@H]1C[C@@H]2O [paclitaxel]

From patent publication US20090239936A1, “Prophylactic and Therapeutic Agent for Cancer” (priority 2006, published 2009)
